Measured values published in patent US12180226B2, “Spirotricycle RIPK1 inhibitors and methods of uses thereof” (Merck Sharp & Dohme LLC, priority 2021, dated 2024).
Counter-ions that a name gives are not always drawn.

target: RIPK1 (recombinant GST-RIPK1 kinase domain, residues 1-327) (Homo sapiens (Human), UniProt Q13546); assay: RIPK1-ADP-Glo Enzymatic Assay; type: biochemical; details: ADP-Glo; 25 nM GST-RIPK1, 300 μM ATP; assay lower limit ~25 nM; read-out: RIPK1 V0 Ec50
Outline: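 Using dephosphorylated MBP (3 μM) as substrate and 300 μM ATP, 25 nM baculovirus-produced enzyme was reacted for 150 min after a 30-min compound pre-incubation. Luminescent ADP detection followed; lower confidence limit ~25 nM.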

Chain of RIPK1 (recombinant GST-RIPK1 kinase domain, residues 1-327) (Q13546 1-327): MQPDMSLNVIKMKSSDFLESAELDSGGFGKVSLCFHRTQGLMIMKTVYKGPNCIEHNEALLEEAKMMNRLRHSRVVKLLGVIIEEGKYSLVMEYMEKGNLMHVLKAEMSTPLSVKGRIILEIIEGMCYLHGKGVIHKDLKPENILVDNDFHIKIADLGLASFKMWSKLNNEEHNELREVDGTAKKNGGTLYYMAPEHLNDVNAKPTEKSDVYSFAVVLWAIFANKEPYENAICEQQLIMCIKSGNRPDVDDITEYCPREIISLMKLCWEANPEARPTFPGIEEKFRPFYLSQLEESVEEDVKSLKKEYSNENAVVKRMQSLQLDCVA

Structure (SMILES)	EC50 [µM]
N#Cc1ccc(N2CCC3(CC2)O[C@@H]2CC[C@@H](c4ccccc4)N2C3=O)n2ncc(C#N)c12 [Example 4.178, 7-[(5′S,7a′R)-3′-oxo-5′-phenyltetrahydro-1H,3′H-spiro[piperidine-4,2′-pyrrolo[2,1-b] [1,3]oxazol]-1-yl]pyrazolo[1,5-a] pyridine-3,4-dicarbonitrile]	< 0.025
N#Cc1cc(N2CCC3(CC2)O[C@@H]2CC[C@@H](c4ccccc4)N2C3=O)ccn1 [Example 4.31, 4-[(5′S,7a′R)-3′-oxo-5′-phenyltetrahydro-1H,3′H-spiro[piperidine-4,2′-pyrrolo[2,1-b] [1,3]oxazol]-1-yl]pyridine-2-carbonitrile]	< 0.025
CC(=O)c1cnc(N2CCC3(CC2)O[C@@H]2CC[C@@H](c4ccccc4)N2C3=O)cc1Cl [Example 4.186, (5′S,7a′R)-1-(5-acetyl-4-chloropyridin-2-yl)-5′-phenyltetrahydro-3′H-spiro[piperidine-4,2′-pyrrolo[2,1-b] [1,3]oxazol]-3′-one]	< 0.025
CC1CN(c2cccc3ncnn23)CCC12O[C@@H]1CC[C@@H](c3ccccc3)N1C2=O (stereo partly drawn) [Example 4.244, (4R,5′S,7a′R)-3-methyl-5′-phenyl-1-([1,2,4]triazolo[1,5-a]pyridin-5-yl)tetrahydro-3′H-spiro[piperidine-4,2′-pyrrolo[2,1-b] [1,3]oxazol]-3′-one]	< 0.025
COC(=O)N1CCC2(CC1)O[C@@H]1CC[C@@H](c3cc(F)cc(F)c3)N1C2=O [Example 1.2, methyl (5′S,7a′R)-5′-(3,5-difluorophenyl)-3′-oxotetrahydro-1H,3′H-spiro[piperidine-4,2′-pyrrolo[2,1-b] [1,3]oxazole]-1-carboxylate]	0.115
O=C1N2[C@@H](CC[C@H]2c2ccccc2)OC12CN(c1ccnc3c(F)cnn13)C2 [Example 4.96, (5′S,7a′R)-1-(3-fluoropyrazolo[1,5-a]pyrimidin-7-yl)-5′-phenyltetrahydro-3′H-spiro[azetidine-3,2′-pyrrolo[2,1-b]oxazol]-3′-one, TFA salt]	< 0.025
O=C1N2[C@@H](CC[C@H]2c2ccccc2)OC12CCN(c1ccc(-c3nnc(C(F)(F)F)o3)cn1)CC2 [Example 4.165, (5′S,7a′R)-5′-phenyl-1-{5-[5-(trifluoromethyl)-1,3,4-oxadiazol-2-yl]pyridin-2-yl}tetrahydro-3′H-spiro[piperidine-4,2′-pyrrolo[2,1-b] [1,3]oxazol]-3′-one]	0.144
CC1CC2(CCN1c1ccnc3ccnn13)O[C@@H]1CC[C@@H](c3ccccc3)N1C2=O (stereo partly drawn) [Example 4.247, (4R,5′S,7a′R)-2-methyl-5′-phenyl-1-(pyrazolo[1,5-a]pyrimidin-7-yl)tetrahydro-3′H-spiro[piperidine-4,2′-pyrrolo[2,1-b] [1,3]oxazol]-3′-one]	0.0865
CC1CN(c2cc(C#N)ncn2)CCC12O[C@@H]1CC[C@@H](c3ccccc3)N1C2=O (stereo partly drawn) [Example 4.234, 6-[(4R,5′S,7a′R)-3-methyl-3′-oxo-5′-phenyltetrahydro-1H,3′H-spiro[piperidine-4,2′-pyrrolo[2,1-b] [1,3]oxazol]-1-yl]pyrimidine-4-carbonitrile]	0.0565
O=C1N2[C@@H](CC[C@H]2c2ccccc2F)OC12CN(c1cc(Cl)ncn1)C2 [Example 4.107, (5′S,7a′R)-1-(6-chloropyrimidin-4-yl)-5′-(2-fluorophenyl)tetrahydro-3′H-spiro[azetidine-3,2′-pyrrolo[2,1-b]oxazol]-3′-one]	0.101
O=C1N2[C@H](OC13CCN(c1ccnc4c(F)cnn14)CC3)[C@@H](O)C[C@H]2c1ccccc1 [Example 4.271, (5′S,7′S,7a′R)-1-(3-fluoropyrazolo[1,5-a]pyrimidin-7-yl)-7′-hydroxy-5′-phenyltetrahydro-3′H-spiro[piperidine-4,2′-pyrrolo[2,1-b] [1,3]oxazol]-3′-one]	< 0.025
CC1CN(c2ncnc3ccnn23)CCC12O[C@@H]1CC[C@@H](c3cc(F)cc(F)c3)N1C2=O (stereo partly drawn) [Example 4.267, (5′S,7a′R)-5′-(3,5-difluorophenyl)-3-methyl-1-(pyrazolo[1,5-a] [1,3,5]triazin-4-yl)tetrahydro-3′H-spiro[piperidine-4,2′-pyrrolo[2,1-b] [1,3]oxazol]-3′-one]	< 0.025

Now from value to molecule:

EC50 [µM]	Structure (SMILES)
0.143	C#Cc1ccccc1C(=O)N1CCC2(CC1)O[C@@H]1CC[C@@H](c3cc(F)cc(F)c3)N1C2=O [Example 5.23, (5′S,7a′R)-5′-(3,5-difluoro-phenyl)-1-(2-ethynyl-benzoyl)tetrahydro-3′H-spiro[piperidine-4,2′-pyrrolo[2,1-b]oxazol]-3′-one]
< 0.025	COc1ncnc(N2CCC3(CC2)O[C@@H]2CC[C@@H](c4ccccc4)N2C3=O)c1F [Example 11.28, (5′S,7a′R)-1-(5-fluoro-6-methoxypyrimidin-4-yl)-5′-phenyltetrahydro-3′H-spiro[piperidine-4,2′-pyrrolo[2,1-b][1,3]oxazol]-3′-one]
< 0.025	O=C(c1cc2ccccn2c1)N1CCC2(CC1)O[C@@H]1CC[C@@H](c3cc(F)cc(F)c3)N1C2=O [Example 5.73, (5′S,7a′R)-5′-(3,5-difluoro-phenyl)-1-(indolizine-2-carbonyl)tetrahydro-3′H-spiro[piperidine-4,2′-pyrrolo[2,1-b]oxazol]-3′-one]
< 0.025	Cn1nc(C(F)(F)F)cc1-c1ccc(N2CCC3(CC2)O[C@@H]2CC[C@@H](c4ccccc4)N2C3=O)n2ncnc12 [Example 21.20, (5′S,7a′R)-1-{8-[1-methyl-3-(trifluoromethyl)-1H-pyrazol-5-yl][1,2,4]triazolo[1,5-a]pyridin-5-yl}-5′-phenyltetrahydro-3′H-spiro[piperidine-4,2′-pyrrolo[2,1-b][l,3]oxazol]-3′-one]
0.0648	CCc1cc(C(=O)N2CCC3(CC2)O[C@@H]2CC[C@@H](c4cc(F)cc(F)c4)N2C3=O)no1 [Example 6.62, (5′S,7a′R)-5′-(3,5-difluorophenyl)-1-(5-ethyl-1,2-oxazole-3-carbonyl)tetrahydro-3′H-spiro[piperidine-4,2′-pyrrolo[2,1-b] [1,3]oxazol]-3′-one]
0.243	O=C1N2[C@@H](CC[C@H]2c2cc(F)cc(F)c2)OC12CCN(C(c1ccccc1)C(F)F)CC2 (single isomer, unassigned) [Example 22.2, (5′S,7a′R)-1-(2,2-Difluoro-1-phenylethyl)-5′-(3,5-difluorophenyl)tetrahydro-3′H-spiro[piperidine-4,2′-pyrrolo[2,1-b]oxazol]-3′-one]
0.277	N#Cc1ccccc1C(=O)N1CCC2(CC1)O[C@@H]1CC[C@@H](c3cc(F)cc(F)c3)N1C2=O [Example 5.13, 2-((5′S,7a′R)-5′-(3,5-difluorophenyl)-3′-oxo-tetrahydro-3′H-spiro [piperidine-4,2′-pyrrolo-[2,1-b]oxazole]-1-carbon-yl)benzonitrile]
< 0.025	Cc1cc(F)c(C(=O)N2CCC3(CC2)O[C@@H]2CC[C@@H](c4ccccc4)N2C3=O)cc1F [Example 5.12, (5′S,7a′R)-1-(2,5-difluoro-4-methylbenzene-1-car-bonyl)-5′-phenyltetra-hydro-3′H-spiro[piperi-dine-4,2′-pyrrolo[2,1-b] [1,3]oxazol]-3′-one]
0.095	Cc1oncc1C(=O)N1CCC2(CC1)O[C@@H]1CC[C@@H](c3cc(F)cc(F)c3)N1C2=O [Example 6.60, (5′S,7a′R)-5′-(3,5-difluorophenyl)-1-(5-methyl-1,2-oxazole-4-carbonyl)tetrahydro-3′H-spiro[piperidine-4,2′-pyrrolo[2,1-b] [1,3]oxazol]-3′-one]
0.151	Cc1nc2sccn2c1C(=O)N1CCC2(CC1)O[C@@H]1CC[C@@H](c3cc(F)cc(F)c3)N1C2=O [Example 6.43, (5′S,7a′R)-5′-(3,5-difluorophenyl)-1-(6-methylimidazo[2,1-b][1,3]thiazole-5-carbonyl)tetrahydro-3′H-spiro[piperidine-4,2′-pyrrolo[2,1-b] [1,3]oxazol]-3′-one]
0.0276	O=C1N2[C@@H](CC[C@H]2c2ccccc2)OC12CCN(c1ccc(C3COC3)c3ccnn13)CC2 [Example 18.2, (5′S,7a′R)-1-[4-(oxetan-3-yl)pyrazolo[1,5-a]pyridin-7-yl]-5′-phenyltetrahydro-3′H-spiro[piperidine-4,2′-pyrrolo[2,1-b][1,3]oxazol]-3′-one]
0.672	O=C1N2[C@@H](CC[C@H]2c2cc(F)cc(F)c2)OC12CCN(S(=O)(=O)c1cccc(F)c1)CC2 [Example 8.4, (5′S,7a′R)-5′-(3,5-difluorophenyl)-1-[(3-fluorophenyl)sulfonyl] tetrahydro-3′H-spiro[piperidine-4,2′-pyrrolo[2,1-b][1,3]oxazol]-3′-one]
0.212	O=C(c1ccsc1-n1nccn1)N1CCC2(CC1)O[C@@H]1CC[C@@H](c3cc(F)cc(F)c3)N1C2=O [Example 6.68, (5′S,7a′R)-5′-(3,5-difluorophenyl)-1-[2-(2H-1,2,3-triazol-2-yl)thiophene-3-carbonyl]tetrahydro-3′H-spiro[piperidine-4,2′-pyrrolo[2,1-b] [1,3]oxazol]-3′-one]
0.0569	O=C(c1ccccn1)N1CCC2(CC1)O[C@@H]1CC[C@@H](c3cc(F)cc(F)c3)N1C2=O [Example 6.101, (5′S,7a′R)-5′-(3,5-difluorophenyl)-1-(pyridine-2-carbonyl) tetrahydro-3′H-spiro [piperidine-4,2′-pyrrolo[2,1-b][1,3]-oxazol]-3′-one]
0.0913	Cn1nc(N2CCC3(CC2)O[C@@H]2CC[C@@H](c4ccccc4)N2C3=O)ccc1=O [Example 11.7, (5′S,7a′R)-1-(1-methyl-6-oxo-1,6-dihydropyridazin-3-yl)-5′-phenyltetrahydro-3′H-spiro[piperidine-4,2′-pyrrolo[2,1-b][1,3]oxazol]-3′-one]
